Values belong to the compound of their own block, whether it stands above or below them.
Key:
erythrocytes (RBCs) = assay: Entry into erythrocytes, oil-stop method; assay type: in vitro ADME; details: calculated in the first 30 minutes, 37° C., 10% hematocrit
Method: The entry of GSH and GSH-C4 into erythrocytes (RBCs) at 37° C. in microcentrifugal test-tubes was measured using the oil-stop method. […] A Manual of Biochemical Methods, 3rd edn. Grune & Stratton, New York).

HSV-1 = HSV-1 replication in Vero cells, plaque assay; assay type: cell-based, human herpes simplex virus type 1
Method: (§1) The Senday virus (SV) belonging to the Paramyxovirus family is a virus with non-segmented single stranded RNA of negative polarity. This virus was reproduced by inoculation in the allantoic liquid of embryonated chicken eggs. The monolayers of MDCK cells were infected with SV [3 hemagglutinating units (HAU)×10^5 cells]. After incubation for 1 hour at 37° C. (adsorption period), the unadsorbed viruses were removed, the monolayers were washed and then incubated in a complete medium containing 2% of bovine fetal serum. The production of viruses by infected cells was determined in the cellular supernatants at different intervals of time from infection (p.i.), measuring the hemagglutinating activity towards type 0 Rh+ human erythrocytes (HAU), according to standard procedures. […] Monkey kidney cells (VERO) were grown in RPMI, to which 5% of serum was added. The human herpes simplex virus type 1 (HSV-1), clinically isolated (TV1), was grown and titered in the Vero cells as described in Palamara, A. T., Perno, C. F., Ciriolo, M. R., Dini, L., Balestra, E., D'Agostini, C. et al. (1995). […] Antiviral Research 27, 237-253.
(§2) To obtain the viral infection, monolayers of Vero cells were infected with HSV-1 at a MOI (multiplicity of infection) of 0.03 PFU/cell. After incubation for 1 hour at 37° C. (adsorption period) the unadsorbed viruses were removed, the monolayers were washed and then incubated with culture medium containing 2% bovine fetal serum. GSH-C4 was added in identical doses to the ones indicated above immediately after the adsorption period and was maintained in the culture medium until completion of the experiments. Supernatants from infected cells were collected at different times after contact with the virus and tested for the ability to form plaques in Vero cells, using a standard titration method. Similar experiments were also conducted on HSV-1 TK-D305.
Vero cells were infected for 1 hour with HSV-1 at a MOI of 0.03 PFU/cell. After repeated washings, GSH-C4 was added at different concentrations (range 0-10 mM) to the cell cultures. Replication of the viruses was tested in the Vero cells 48 h after infection using the plaque technique.

Sendai virus = Sendai virus replication in MDCK cells, hemagglutinating activity in supernatant; assay type: cell-based; details: for EC50 / inhibition at 5000 µM: Respirovirus muris; for EC50: 48 h, MDCK cells, read-out: 50% of inhibition of viral reproduction (EC50); for inhibition at 5000 µM: MDCK, 5 mM
Method: To measure the behavior of GSH-C4 derivatives in infected cells, Madin Darby canine kidney cells (MDCK) were grown in RPMI 1640 to which 5% of heat-decomplemented bovine fetal serum (Flow Laboratories, Italy) was added.
as §1
MDCK cells were infected for 1 hour with 3 hemagglutinating units (HAU)×10^5 cells. The cells were washed and then cultivated in the presence of different concentrations of GSH-C4 (range 0-7.5 mM) for 2 days. Production of the virus was assayed at 24 hours (panel A) and 48 hours (panel B) measuring the hemagglutinating activity on type 0 Rh+ human erythrocytes.

[1] = system: glutathione S-transferase (E.C.2.5.1.18.); assay: Glutathione S-transferase activity in hemolyzed human blood with GSH or GSH-C4 as substrate; assay type: biochemical; details: 2 mM substrate
Method: (§3) Enzymatic determinations of the activity of glutathione peroxidase (E.C.1.11.1.9.) and glutathione S-transferase (E.C.2.5.1.18.) in hemolyzed human blood in the presence of GSH and of its derivative GSH-C4 were carried out according to the methods of Beutler (Beutler, E., 1984, Red Cell Metabolism. A Manual of Biochemical Methods, 3rd edn. Grune & Stratton, New York). GSH and GSH-C4 were then oxidized by incubation at ambient temperature in the presence of 35% (v/v) H2O2 to respectively obtain GSSG and C4-GSSG-C4.
(§4) The enzymatic activities of glutathione peroxydase and glutathione S-transferase were measured in hemolyzed human blood in the presence of GSH-C4 or GSH 2 mM as substrates. […] Moreover, GSH and GSH-C4 were chemically oxidized in the corresponding disulphide forms (GSSG and C4-GSSG-C4).

[2] = target: T1, glutathione peroxidase (E.C.1.11.1.9.) (Homo sapiens, UniProt P07203); assay: Glutathione peroxidase activity in hemolyzed human blood with GSH or GSH-C4 as substrate; assay type: biochemical; details: 2 mM substrate
T1 construct: measured in hemolyzed human blood; from tissue; host or cells: hemolyzed human blood
T1 sequence (P07203 1-203): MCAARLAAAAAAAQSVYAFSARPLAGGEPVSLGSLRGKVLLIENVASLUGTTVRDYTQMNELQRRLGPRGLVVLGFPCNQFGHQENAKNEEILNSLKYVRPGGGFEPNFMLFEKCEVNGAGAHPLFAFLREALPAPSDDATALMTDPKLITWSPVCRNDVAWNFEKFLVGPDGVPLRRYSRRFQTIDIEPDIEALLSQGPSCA
Method: as §3, §4

HSV-1 TK− = assay: HSV-1 TK- (Δ305) replication in Vero cells, plaque forming units; assay type: cell-based, human herpes simplex virus type 1
Method: as §2
Vero cells were infected for 1 h at 37° C. with the strain Δ305 and then kept in culture in the presence of different concentrations of GSH-C4. The production of viruses was measured 24, 48 and 72 h after infection by assay of the plaque forming units.

[3] = system: uninfected Madin Darby canine kidney cells (MDKC); assay: Toxicity on confluent monolayers of uninfected MDCK cells (morphology, Trypan blue vitality, cell count); assay type: cell-based; details: for toxic effect or change in cell morphology: uninfected MDCK monolayers, concentrations used in the experiments
Method: The toxicity was measured on the basis of microscopic examinations of cellular morphology, of measurement of cellular vitality after staining with Trypan blue and of the cell count. All compounds were diluted in RPMI, the final pH of the solution was approximately 7-7.3.

uninfected Vero cells = assay: Toxic effects in uninfected Vero cells; assay type: cell-based, Monkey

- entry speed into erythrocytes (erythrocytes (RBCs)): 2.33 nmol/min/ml RBCs
- EC50 (Sendai virus): 7.6 mM
Structure (SMILES): N[C@@H](CCC(=O)N[C@@H](CS)C(=O)NCC(=O)O)C(=O)O [GSH, γ-glutamylcysteinylglycine, reference compound]
- complete inhibition of the virus (HSV-1; 10 mM): does not induce complete inhibition of the virus
- reduction in virus replication (HSV-1; 10 mM): around 2.5 log

Structure (SMILES): CCCC(=O)N[C@@H](CCC(=O)N[C@@H](CS)C(=O)NCC(=O)O)C(=O)O [GSH-C4, n-butanoyl γ-glutamylcysteinylglycine]
- entry speed into erythrocytes (erythrocytes (RBCs)): 4.33 nmol/min/ml RBCs
- virus particles in the cellular supernatant (HSV-1; 10 mM, 48 h after infection): no virus particles were detected
- inhibition of virus replication 72 h after infection (HSV-1; 72 h after infection): same inhibition
- protection from cytopathic effects induced by the virus (HSV-1; HSV-1 infected Vero cells): protects the Vero cells from the cytopathic effects induced by the virus
- inhibition at 7500 µM (HSV-1; Human alphaherpesvirus 1, Vero, 48 h, read-out: inhibition of viral replication compared to the control): 60%
- glutathione S-transferase activity compared to that in the presence of GSH [1]: 3.5%
- glutathione peroxydase activity compared to that in the presence of GSH [2]: 1.8%
- activity against the strain TK− compared with the wild type strain (HSV-1 TK−): less active
- HSV-1 TK− titer (HSV-1 TK−; 5 mM, 24 h): 2.59 × 10^5 pfu/ml
- HSV-1 TK− titer (HSV-1 TK−; 5 mM, 48 h): 2.42 × 10^6 pfu/ml
- HSV-1 TK− titer (HSV-1 TK−; 5 mM, 72 h): 2.13 × 10^6 pfu/ml
- HSV-1 TK− titer (HSV-1 TK−; 7.5 mM, 24 h): 1.59 × 10^5 pfu/ml
- HSV-1 TK− titer (HSV-1 TK−; 7.5 mM, 48 h): 2.56 × 10^5 pfu/ml
- HSV-1 TK− titer (HSV-1 TK−; 7.5 mM, 72 h): 4.33 × 10^5 pfu/ml
- inhibition of virus titer (HSV-1 TK−; 7.5 mM, 72 h after infection): approximately 1 log
- HSV-1 TK− titer (HSV-1 TK−; 10 mM, 24 h): 1.53 × 10^5 pfu/ml
- HSV-1 TK− titer (HSV-1 TK−; 10 mM, 48 h): 2.6 × 10^5 pfu/ml
- HSV-1 TK− titer (HSV-1 TK−; 10 mM, 72 h): 3.44 × 10^5 pfu/ml
- toxicity for the cells, microscopic examination of the monolayers ([3]; 7.5 mM, MDCK monolayers of the Sendai experiment): without being toxic for the cells
- toxic effect or change in cell morphology [3]: do not induce any toxic effect or change in cell morphology
- virus in the supernatant of treated cells (Sendai virus; 7.5 mM): no viruses were found
- inhibition at 5000 µM (Sendai virus; 24 h p.i.): 88%
- inhibition at 5000 µM (Sendai virus; 48 h p.i.): 93%
- EC50 (Sendai virus): 3.6 mM
- toxic effects in uninfected Vero cells (uninfected Vero cells): does not induce any toxic effects

Structure (SMILES): CCCCCCCC(=O)NC(CCC(=O)NC(CS)C(=O)NCC(=O)O)C(=O)O (stereo not drawn) [GSH-C8]
- toxic effect or change in cell morphology [3]: marked toxic effects

— US20070270349A1, “Glutathione Derivatives and Their Uses for the Treatment of Viral Diseases” (priority 2003, published 2007)
